Measured values reported in article PMC6522510 (Nature Communications, 2019).
Where a name gives a salt, the structure may show the parent alone. Read-outs that look alike come from different tables or passages of the source.

How the values were obtained:
Design in all cases: species or system AML cell lines (8); Primary HTS, single concentration about 10 uM, Cell Titer Glo viability; log10 luminescence, per cent inhibition relative to cycloheximide control
Details in all cases: 72 h, inhibitor
CHRF288-11 = test system: CHRF288-11
CMK = test system: CMK
CMS = test system: CMS
M07e = test system: M07e
ML-2 = test system: ML-2
MOLM-13 = test system: MOLM-13
MV4-11 = test system: MV4-11
U937 = test system: U937
[1] = relative to cycloheximide control, log10 luminescence
[2] = relative to cycloheximide control, log10 luminescence, CHRF288-11 %inh, 10 µM
[3] = relative to cycloheximide control, log10 luminescence, CMK %inh, 10 µM
[4] = relative to cycloheximide control, log10 luminescence, CMS %inh, 10 µM
[5] = relative to cycloheximide control, log10 luminescence, M07e %inh, 10 µM
[6] = relative to cycloheximide control, log10 luminescence, ML-2 %inh, 10 µM
[7] = relative to cycloheximide control, log10 luminescence, MOLM-13 %inh, 10 µM
[8] = relative to cycloheximide control, log10 luminescence, MV4-11 %inh, 10 µM
[9] = relative to cycloheximide control, log10 luminescence, U937 %inh, 10 µM

SMILES	CHRF288-11 %inh (CHRF288-11; [1]) [%]	CMK %inh (CMK; [1]) [%]	CMS %inh (CMS; [1]) [%]	M07e %inh (M07e; [1]) [%]	ML-2 %inh (ML-2; [1]) [%]	MOLM-13 %inh (MOLM-13; [1]) [%]	MV4-11 %inh (MV4-11; [1]) [%]	U937 %inh (U937; [1]) [%]	CHRF288-11 %inh (CHRF288-11; [2]) [%]	CMK %inh (CMK; [3]) [%]	CMS %inh (CMS; [4]) [%]	M07e %inh (M07e; [5]) [%]	ML-2 %inh (ML-2; [6]) [%]	MOLM-13 %inh (MOLM-13; [7]) [%]	MV4-11 %inh (MV4-11; [8]) [%]	U937 %inh (U937; [9]) [%]	also measured
NC[C@H]1CC[C@H](C(=O)O)CC1 [SJ000285898-4, TRANEXAMIC ACID]	-2.741	-3.012	-4.095	0.2149	1.648	-3.616	-0.1986	-1.275	–	–	–	–	–	–	–	–	–
CC(=O)OC/C=C(C)/C=C/C=C(C)/C=C/C1=C(C)CCCC1(C)C [SJ000285933-3, RETINYL ACETATE]	13.53	13.65	2.535	2.591	2.843	0.103	3.526	8.926	–	–	–	–	–	–	–	–	–
CCOC(=O)OC(C)OC(=O)[C@@H]1N2C(=O)[C@@H](NC(=O)[C@H](N)c3ccccc3)[C@H]2SC1(C)C (some centres unmarked) [SJ000285946-4, BACAMPICILLIN HYDROCHLORIDE]	-3.08	-5.01	-1.038	-1.353	-0.2443	6.375	-1.634	-1.553	–	–	–	–	–	–	–	–	–
CN(C)CCC=C1c2ccccc2C=Cc2ccccc21 [SJ000285960-7, CYCLOBENZAPRINE HYDROCHLORIDE]	66.65	3.38	-1.125	2.233	3.717	-2.604	2.11	7.437	–	–	–	–	–	–	–	–	–
CCn1cc(C(=O)O)c(=O)c2cc(F)c(N3CCNCC3)nc21 [SJ000285962-4, ENOXACIN]	7.607	15.64	4.313	7.045	32.21	-2.8	40.28	-0.8348	–	–	–	–	–	–	–	–	–
CC(=O)/N=c1/sc(S(N)(=O)=O)nn1C [SJ000285971-4, METHAZOLAMIDE]	–	–	–	–	–	–	–	–	-2.381	-8.28	-3.008	-2.489	1.069	1.468	-0.9248	-0.6609	–
CC(=O)/N=c1/sc(S(N)(=O)=O)nn1C [SJ000285971-5, METHAZOLAMIDE]	–	–	–	–	–	–	–	–	-3.176	-2.598	-3.489	-1.211	3.001	0.5424	-3.681	-1.329	–
COc1ccc(OC)c(C(O)CNC(=O)CN)c1 (centres unmarked) [SJ000285975-4, MIDODRINE HYDROCHLORIDE]	5.586	-2.727	-2.587	0.8303	3.423	-0.9656	0.5881	-2.394	–	–	–	–	–	–	–	–	–
CC(=O)CCCCn1c(=O)c2c(ncn2C)n(C)c1=O [SJ000285992-7, PENTOXIFYLLINE]	-2.356	2.352	-0.2539	-1.002	-1.777	0.7772	4.085	-1.659	–	–	–	–	–	–	–	–	–
CCC(=O)O[C@]1(C(=O)CCl)[C@@H](C)C[C@H]2[C@@H]3CCC4=CC(=O)C=C[C@]4(C)[C@@]3(F)[C@@H](O)C[C@@]21C [SJ000286006-4, CLOBETASOL PROPIONATE]	12.55	12.78	4.642	3.893	4.272	8.361	4.125	16.72	–	–	–	–	–	–	–	–	–
OCCN1CCN(CCCN2c3ccccc3Sc3ccc(Cl)cc32)CC1 [SJ000286016-7, PERPHENAZINE]	–	–	–	–	–	–	–	–	-1.811	1.286	1.171	0.915	-0.4093	-1.496	1.352	-2.208	–
OCCN1CCN(CCCN2c3ccccc3Sc3ccc(Cl)cc32)CC1 [SJ000286016-8, PERPHENAZINE]	–	–	–	–	–	–	–	–	40.76	10.21	3.223	5.089	2.921	2.324	2.594	5.279	–
OC(Cn1cncn1)(Cn1cncn1)c1ccc(F)cc1F [SJ000286024-3, FLUCONAZOLE]	-3.189	-0.02108	-4.097	-2.445	-1.511	-1.868	0.2312	1.624	–	–	–	–	–	–	–	–	–
CC[C@H]1OC(=O)[C@H](C)[C@@H](O[C@H]2C[C@@](C)(OC)[C@@H](O)[C@H](C)O2)[C@H](C)[C@@H](O[C@@H]2O[C@H](C)C[C@H](N(C)C)[C@H]2O)[C@](C)(O)C[C@@H](C)[C@@H]2N[C@@H](COCCOC)O[C@H]([C@H]2C)[C@]1(C)O [SJ000286040-4, DIRITHROMYCIN]	–	–	–	–	–	–	–	–	–	–	–	–	–	–	–	–	CHRF288-11 %inh (CHRF288-11; 10 µM): 3.605%; CMK %inh (CMK; 10 µM): -6.058%; CMS %inh (CMS; 10 µM): -2.389%; M07e %inh (M07e; 10 µM): -2.158%; ML-2 %inh (ML-2; 10 µM): 0.363%; MOLM-13 %inh (MOLM-13; 10 µM): 5.018%; MV4-11 %inh (MV4-11; 10 µM): -1.547%; U937 %inh (U937; 10 µM): 3.436%
CC[C@H]1OC(=O)[C@H](C)[C@@H](O[C@H]2C[C@@](C)(OC)[C@@H](O)[C@H](C)O2)[C@H](C)[C@@H](O[C@@H]2O[C@H](C)C[C@H](N(C)C)[C@H]2O)[C@](C)(O)C[C@@H](C)[C@@H]2N[C@@H](COCCOC)O[C@H]([C@H]2C)[C@]1(C)O [SJ000286040-5, DIRITHROMYCIN]	–	–	–	–	–	–	–	–	–	–	–	–	–	–	–	–	CHRF288-11 %inh (CHRF288-11; 10 µM): 3.137%; CMK %inh (CMK; 10 µM): -5.982%; CMS %inh (CMS; 10 µM): -0.1114%; M07e %inh (M07e; 10 µM): -2.366%; ML-2 %inh (ML-2; 10 µM): -0.7146%; MOLM-13 %inh (MOLM-13; 10 µM): -2.496%; MV4-11 %inh (MV4-11; 10 µM): -3.548%; U937 %inh (U937; 10 µM): -1.919%
CC[C@H]1OC(=O)[C@H](C)[C@@H](O[C@H]2C[C@@](C)(OC)[C@@H](O)[C@H](C)O2)[C@H](C)[C@@H](O[C@@H]2O[C@H](C)C[C@H](N(C)C)[C@H]2O)[C@](C)(OC)C[C@@H](C)C(=O)[C@H](C)[C@@H](O)[C@]1(C)O [SJ000286061-3, CLARITHROMYCIN]	–	–	–	–	–	–	–	–	-0.08051	1.841	-1.005	0.43	2.326	2.582	1.904	1.585	–
CC[C@H]1OC(=O)[C@H](C)[C@@H](O[C@H]2C[C@@](C)(OC)[C@@H](O)[C@H](C)O2)[C@H](C)[C@@H](O[C@@H]2O[C@H](C)C[C@H](N(C)C)[C@H]2O)[C@](C)(OC)C[C@@H](C)C(=O)[C@H](C)[C@@H](O)[C@]1(C)O [SJ000286061-4, CLARITHROMYCIN]	–	–	–	–	–	–	–	–	4.27	-0.3654	4.035	4.017	-1.428	0.6227	1.784	1.816	–
COc1c(N2CCNC(C)C2)c(F)cc2c(=O)c(C(=O)O)cn(C3CC3)c12 (centres unmarked) [SJ000286066-3, GATIFLOXACIN]	7.116	1.598	-1.278	0.9683	1.743	8.563	-0.7209	2.127	–	–	–	–	–	–	–	–	–
CC(=O)OCC(CCn1cnc2cnc(N)nc21)COC(C)=O [SJ000286077-3, FAMCICLOVIR]	-0.6265	3.857	3.04	-1.801	-0.1732	3.343	1.495	2.68	–	–	–	–	–	–	–	–	–
